According to patent US10351519B2, “Sulfamate derivative compounds, processes for preparing them and their uses” (BIO-PHARM SOLUTIONS CO., LTD., priority 2016, dated 2019):

What was measured:
Format in all cases: in vivo
[1] = tested on: ICR mice; test: Tail-flick test; settings: orally
Procedure: To examine the pain relief effect of the sulfamate compounds, a tail-flick test was conducted, referring to Current Protocols in Neuroscience; Behavioral Neuroscience Unit 8.9.
ICR mice (male, 25-30 g; Orient Bio, Korea) were habituated before test (in test room) for 1 hour. Animals were fasted 2 hr before administration of compounds. Each of the tested compound were orally administered at the 1˜3 dose, 10 ul/g, by bw (n=4-6/group). All compounds were dissolved in a vehicle of 30% (v/v) PEG 400 or 20% (v/v) Tween 80. The control group was treated the vehicle without compounds.
After the administration of compounds, the mice tail were put on a tail-flick analgesia meter. To avoid tissue damage, maximal exposure time to pain stimuli was restricted to 15 seconds. The withdrawal latency was measured to the time to the point when each mouse responded. The relative values compared to the control (% control) were calculated.

[2] = tested on: Sprague-Dawley rats; test: Antiallodynic activity on post operative-induced pain model; settings: intraperitoneal injection; for ED50: Rattus norvegicus, ip, read-out: Post Operation ED50
Source text: Male Sprague-Dawley rats (230-250 g, Orient Bio, Korea), were habituated at least 3 days before surgery and were allowed free access to food and water throughout the experimentation. Room temperature and humidity were maintained at 24±2 and 50±10%, respectively. The process of performing the post-operation model's surgery was adapted from Brennan et al (1996). At first, rats with allodynia (threshold valueless than 8 g) were excluded in Pre-von Frey Test. During the post-operation surgery, rats were anesthetized under gaseous anesthesia with 2% isoflurane. The rat was placed, lying face down on 37 degree warm plate to prevent against hypothermia. The ipsilateral plantar aspect (left side) of the hind paw was prepared in a sterile manner with a 10% povidone-iodine solution. A 1 cm longitudinal incision was made with a number 10 blade, through the skin and fascia of the ipsilateral plantar aspect of the foot, starting from 0.5 cm from the proximal edge of the heel and extending toward the toes. Rats' plantar muscles were elevated and incised longitudinally. After hemostasis with gentle pressure, the skin was opposed with 2 mattress sutures of 4-0 Dafilon.
After 24 hours of recovery, rats with a good response (threshold less than 4 g) in Pre-von Frey Test were selected. According to this response, we made three groups with each group having equal average responses: Group 1, post-operation and drug treated; Group 2, post-operation and vehicle treated; Group 3, no post-operation and vehicle treated. In this study, Group 3 was the sham control (positive) group. […]
For efficacy measure, the threshold value of group C was assigned 100% efficacy, and the percentage of the threshold values of group A compared to group C (for each different dose level) were calculated as the efficacies. Base on these efficacy values, ED50 was calculated using log fitting. […]
For pain threshold test, all animals were placed in a stainless steel meshed chamber and habituated for 30 min in the test cage. The tactile sensitivity of the ipsilateral hind paw was measured using the up-and-down method (Dixon, 1980) with seven von Frey monofilaments (0.4, 1, 2, 4, 6, 8, and 15 g) using 3 trials. The 50% paw withdrawal threshold for each paw was calculated using the following formula: [Xth] log=[vFr] log+ky, where [vFr] is the force of the last von Frey filament used, k=0.2249 which is the average interval (in log units) between the von Frey monofilaments, y which is a value that depends upon the pattern of withdrawal responses, and Xth which is the threshold value (Dixon, 1980). […]
The relative values compared to the sham (% control) were calculated and shown in Table 7, which show an antiallodynic effect of the compound of examples on Post operation-induced pain model in rats.

[3] = tested on: ICR mice; test: Chemical induced seizure model (strychnine); settings: intraperitoneal
Procedure: Male ICR mice (purchased from Orient Bio Inc. Korea) of body weight 19-27 g were used for these studies. The test materials were administered intraperitoneal route in a volume of 10 ul/g weight. Pharmacological effects of all the test materials were evaluated to compared test groups (n=6) with a control group (n=6). Control group was administrated vehicle, only. The peak time was determined by administration test material's random dose for 0.5, 1, 2 hour. The time that the most protect was defined peak time and ED50 was determined by other dose administration at peak time. Strychnine was dissolved in 0.9% saline and administered intraperitoneally (i.p.) at its CD97 (convulsive dose 97%) the dose of strychnine that produced clonic seizures in 97% in a volume of 10 ul/g body weight. The animals were then transferred to observation cages and observed continuously for 30 min. Clonic seizure was elicited in approximately 95% of control group. Protection was defined as complete absence of a clonic seizure over the 30-min observation period. The time that the most protect was defined peak time and ED50 was determined by other dose administration at peak time. The effective dose of compound necessary to protect against seizures to 50% of controls (i.e. ED50) was determined by log probit analysis using Excel 2007 (Microsoft).

Row | SMILES | tail-flick test Peak Time [1] | tail-flick test efficacy % ([1]; 100 mg/kg) | ED50 [2] [mg/kg] | Post Operation Peak Time [2] [h] | ED50 ([3]; Mus musculus, ip, read-out: Strychnine test ED50) [mg/kg] | Strychnine test Peak Time [3] [h] | tail-flick test Dose [1] [mg/kg]
1 | C[C@H](OS(N)(=O)=O)[C@@H](O)c1c(Cl)cccc1Cl [Example 7, (1S, 2S)-1-(2,6-dichlorophenyl)-1-hydroxypropan-2-yl sulfamate] | 1~2 hr | 100 (19.0%) | 5.8 | 0.5 | 75.8 | 0.5 | 
2 | C[C@@H](OS(N)(=O)=O)[C@H](O)c1c(Cl)cccc1Cl [Example 8, (1R, 2R)-1-(2,6-dichlorophenyl)-1-hydroxypropan-2-yl sulfamate] |  |  | 4.2 | 0.5 |  |  | >200
